Laboratory results from US8143408B2, “N-(8-heteroaryltetrahydronaphtalene-2yl) or N-(5-heteroarylchromane-3-yl) carboxamide derivatives for the treatment of pain” (AstraZeneca AB, priority 2007, dated 2012).

Target: T1, Nav1.7 voltage-gated sodium channel (Homo sapiens, UniProt Q15858)
T1 construct: Gene(s) encoding the full-length protein of the voltage-gated sodium channel of interest are cloned and expressed; expressed in transfected cells
Assay: Whole-cell voltage clamp electrophysiology assay
Assay type: cell-based
Conditions: cells stably expressing the voltage-gated sodium channel of interest
Source text: Gene(s) encoding the full-length protein of the voltage-gated sodium channel of interest are cloned and expressed under a suitable promoter in a suitable cell line, as well known in the art. […] Suitable screening assays are as follows.
Electrophysiological studies can be performed using automated patch-clamp electrophysiology platforms, like IonWorks HT, IonWorks Quattro, PatchXpress, QPatch or any other suitable platform. […] Suitable extracellular and intracellular buffer for such experiments are applied according to the instructions given by the manufacturer of the automated patch-clamp platforms. Cells that express the voltage-gated sodium channel protein of interest are exposed to drugs through the pipetting system integrated in the platforms. A suitable voltage stimulus protocol is used to activate the voltage-gated sodium channel proteins of interest through depolarisation from a defined holding potential.
Electrophysiological studies can also be performed using the whole cell configuration of the standard patch clamp technique. In this assay, cells that express the voltage-gated sodium channel protein of interest are exposed to the drugs by conventional microperfusion systems and a suitable voltage stimulus protocol is used to activate the voltage-gated sodium channels.

T1 sequence (Q15858 whole entry): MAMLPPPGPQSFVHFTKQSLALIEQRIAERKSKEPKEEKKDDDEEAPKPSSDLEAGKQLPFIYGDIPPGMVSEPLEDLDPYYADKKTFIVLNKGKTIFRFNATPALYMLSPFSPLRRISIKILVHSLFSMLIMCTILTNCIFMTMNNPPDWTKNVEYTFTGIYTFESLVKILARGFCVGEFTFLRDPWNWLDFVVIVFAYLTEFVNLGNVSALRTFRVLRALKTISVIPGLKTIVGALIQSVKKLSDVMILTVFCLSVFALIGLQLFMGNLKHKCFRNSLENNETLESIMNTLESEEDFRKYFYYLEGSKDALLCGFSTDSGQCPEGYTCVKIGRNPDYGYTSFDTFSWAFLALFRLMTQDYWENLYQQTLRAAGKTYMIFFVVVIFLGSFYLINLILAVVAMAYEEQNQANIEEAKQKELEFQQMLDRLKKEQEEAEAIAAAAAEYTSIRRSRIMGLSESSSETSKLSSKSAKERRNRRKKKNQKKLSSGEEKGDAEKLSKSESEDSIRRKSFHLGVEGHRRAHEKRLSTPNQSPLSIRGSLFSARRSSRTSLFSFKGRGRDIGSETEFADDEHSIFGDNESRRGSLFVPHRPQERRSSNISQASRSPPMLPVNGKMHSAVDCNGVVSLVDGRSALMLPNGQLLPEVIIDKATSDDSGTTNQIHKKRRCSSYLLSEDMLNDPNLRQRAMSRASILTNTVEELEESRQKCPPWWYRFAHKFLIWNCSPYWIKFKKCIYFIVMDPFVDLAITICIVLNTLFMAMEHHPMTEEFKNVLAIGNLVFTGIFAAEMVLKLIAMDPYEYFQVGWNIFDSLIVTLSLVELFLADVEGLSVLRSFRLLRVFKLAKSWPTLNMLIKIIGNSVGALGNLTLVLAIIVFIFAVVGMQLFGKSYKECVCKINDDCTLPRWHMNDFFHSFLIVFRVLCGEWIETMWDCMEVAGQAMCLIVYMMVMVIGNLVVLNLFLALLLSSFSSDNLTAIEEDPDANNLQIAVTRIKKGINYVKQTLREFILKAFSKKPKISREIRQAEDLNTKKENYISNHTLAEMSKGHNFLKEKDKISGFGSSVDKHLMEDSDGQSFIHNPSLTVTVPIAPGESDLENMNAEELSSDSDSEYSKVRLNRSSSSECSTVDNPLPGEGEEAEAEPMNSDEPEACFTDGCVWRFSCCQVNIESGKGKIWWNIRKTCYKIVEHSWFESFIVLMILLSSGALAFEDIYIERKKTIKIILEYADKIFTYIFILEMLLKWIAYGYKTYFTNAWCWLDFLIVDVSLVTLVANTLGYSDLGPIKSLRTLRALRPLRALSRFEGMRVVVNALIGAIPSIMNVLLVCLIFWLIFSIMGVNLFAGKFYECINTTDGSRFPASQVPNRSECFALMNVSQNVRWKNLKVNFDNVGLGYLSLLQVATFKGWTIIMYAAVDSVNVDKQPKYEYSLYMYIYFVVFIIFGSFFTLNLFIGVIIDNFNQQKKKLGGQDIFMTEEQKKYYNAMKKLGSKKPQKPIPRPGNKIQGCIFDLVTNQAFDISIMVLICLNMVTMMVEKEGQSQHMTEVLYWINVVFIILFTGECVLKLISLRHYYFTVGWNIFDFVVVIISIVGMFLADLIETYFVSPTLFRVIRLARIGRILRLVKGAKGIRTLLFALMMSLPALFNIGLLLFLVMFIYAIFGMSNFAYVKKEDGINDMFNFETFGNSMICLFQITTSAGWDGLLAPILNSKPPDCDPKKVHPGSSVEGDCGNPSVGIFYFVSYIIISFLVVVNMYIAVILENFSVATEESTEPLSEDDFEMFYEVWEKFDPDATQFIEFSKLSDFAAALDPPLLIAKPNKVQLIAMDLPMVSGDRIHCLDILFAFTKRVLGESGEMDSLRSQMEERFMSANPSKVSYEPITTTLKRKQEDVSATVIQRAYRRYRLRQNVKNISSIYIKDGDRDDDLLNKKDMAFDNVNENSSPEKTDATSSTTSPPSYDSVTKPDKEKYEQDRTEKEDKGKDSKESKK

`COc1ccc(-c2ccc(C(=O)N[C@@H]3COc4cccc(-c5ccncc5)c4C3)cn2)c(OC)c1` [Example 70, 6-(2,4-dimethoxyphenyl)-N-[(3S)-5-pyridin-4-yl-3,4-dihydro-2H-chromen-3-yl]nicotinamide] was tested. Which IC50 did it give?
The IC50 was 1 µM.

For `COc1ncccc1-c1cccc2c1C[C@H](NC(=O)c1ccc(OC(C)C)nc1)CO2` [Example 71, 6-isopropoxy-N-[(3S)-5-(2-methoxypyridin-3-yl)-3,4-dihydro-2H-chromen-3-yl]nicotinamide], which IC50 is on record?
The IC50 was 2 µM.

Which IC50 does the source give for `COc1ncccc1-c1cccc2c1C[C@H](NC(=O)c1ccc(OCCC(F)(F)F)nc1)CO2` [Example 72, N-[(3S)-5-(2-methoxypyridin-3-yl)-3,4-dihydro-2H-chromen-3-yl]-6-(3,3,3-trifluoropropoxy)nicotinamide] here?
Its IC50 is 0.501 µM.

`COc1ncc(-c2cccc3c2C[C@@H](NC(=O)c2ccc(OC(C)C)nc2)CC3)cn1` [Example 73, 6-isopropoxy-N-[(2S)-8-(2-methoxypyrimidin-5-yl)-1,2,3,4-tetrahydronaphthalen-2-yl]nicotinamide] was tested. Which IC50 did it give?
Its IC50 is 3.98 µM.

With `CC(C)Oc1ccc(C(=O)N[C@@H]2CCc3cccc(-c4cccnc4F)c3C2)cn1` [Example 74, N-[(2R)-8-(2-fluoropyridin-3-yl)-1,2,3,4-tetrahydronaphthalen-2-yl]-6-isopropoxynicotinamide] as the compound, how does the IC50 read?
The IC50 was 0.251 µM.

`O=C(N[C@@H]1CCc2cccc(-c3ccnnc3)c2C1)c1ccc(OCCC(F)(F)F)nc1` [Example 75, N-[(2R)-8-pyridazin-4-yl-1,2,3,4-tetrahydronaphthalen-2-yl]-6-(3,3,3-trifluoropropoxy)nicotinamide] was tested. Which IC50 did it give?
Its IC50 is 0.631 µM.

For `COc1ccc(-c2cccc3c2C[C@H](NC(=O)c2ccc(OC(C)C)nc2)CO3)cn1` [Example 76, 6-isopropoxy-N-[(3S)-5-(6-methoxypyridin-3-yl)-3,4-dihydro-2H-chromen-3-yl]nicotinamide], which IC50 is on record?
Its IC50 is 0.398 µM.

With `COc1ccc(-c2cccc3c2C[C@H](NC(=O)c2ccc(OCCC(F)(F)F)nc2)CO3)cn1` [Example 77, N-[(3S)-5-(6-methoxypyridin-3-yl)-3,4-dihydro-2H-chromen-3-yl]-6-(3,3,3-trifluoropropoxy)nicotinamide] as the compound, how does the IC50 read?
Its IC50 is 0.126 µM.

`CC(C)Oc1ccc(C(=O)N[C@@H]2CCc3cccc(-c4ccnnc4)c3C2)cn1` [Example 78, 6-isopropoxy-N-[(2R)-8-pyridazin-4-yl-1,2,3,4-tetrahydronaphthalen-2-yl]nicotinamide] was tested. Which IC50 did it give?
Its IC50 is 3.16 µM.

For `COc1cnc(C(=O)N[C@@H]2COc3cccc(-c4cnc(OC)c(F)c4)c3C2)cn1` [Example 79, N-[(3S)-5-(5-fluoro-6-methoxypyridin-3-yl)-3,4-dihydro-2H-chromen-3-yl]-5-methoxypyrazine-2-carboxamide], which IC50 is on record?
Its IC50 is 1.26 µM.

Which IC50 does the source give for `O=C(N[C@@H]1COc2cccc(-c3ccnnc3)c2C1)c1ccc(OCC(F)(F)F)nc1` [Example 80, N-[(3S)-5-pyridazin-4-yl-3,4-dihydro-2H-chromen-3-yl]-6-(2,2,2-trifluoroethoxy)nicotinamide] here?
Its IC50 is 2.51 µM.

For `O=C(N[C@@H]1COc2cccc(-c3ccnnc3)c2C1)c1ccc(OCCC(F)(F)F)nc1` [Example 81, N-[(3S)-5-pyridazin-4-yl-3,4-dihydro-2H-chromen-3-yl]-6-(3,3,3-trifluoropropoxy)nicotinamide], which IC50 is on record?
The IC50 was 0.398 µM.

Which IC50 does the source give for `COc1ncc(-c2cccc3c2C[C@H](NC(=O)c2ccc(OC(C)C)nc2)CC3)cn1` [Example 82, 6-isopropoxy-N-[(2R)-8-(2-methoxypyrimidin-5-yl)-1,2,3,4-tetrahydronaphthalen-2-yl]nicotinamide] here?
The IC50 was 2.51 µM.

`COc1cnc(C(=O)N[C@@H]2COc3cccc(-c4cnc(OC)nc4)c3C2)cn1` [Example 83, 5-methoxy-N-[(3S)-5-(2-methoxypyrimidin-5-yl)-3,4-dihydro-2H-chromen-3-yl]pyrazine-2-carboxamide] was tested. Which IC50 did it give?
The IC50 was 5.01 µM.

How did the IC50 turn out when `COc1ncc(-c2cccc3c2C[C@H](NC(=O)c2ccc(OCCC(F)(F)F)nc2)CC3)cn1` [Example 84, N-[(2R)-8-(2-methoxypyrimidin-5-yl)-1,2,3,4-tetrahydronaphthalen-2-yl]-6-(3,3,3-trifluoropropoxy)nicotinamide] was run?
Its IC50 is 0.398 µM.

Which IC50 does the source give for `COc1ncc(-c2cccc3c2C[C@H](NC(=O)c2ccc(OCC(F)(F)F)nc2)CC3)cn1` [Example 85, N-[(2R)-8-(2-methoxypyrimidin-5-yl)-1,2,3,4-tetrahydronaphthalen-2-yl]-6-(2,2,2-trifluoroethoxy)nicotinamide] here?
The IC50 was 0.501 µM.

Which IC50 does the source give for `O=C(N[C@@H]1CCc2cccc(-c3cccnc3F)c2C1)c1ccc(OCC(F)(F)F)nc1` [Example 87, N-[(2R)-8-(2-fluoropyridin-3-yl)-1,2,3,4-tetrahydronaphthalen-2-yl]-6-(2,2,2-trifluoroethoxy)nicotinamide] here?
Its IC50 is 0.2 µM.

For `COc1ncc(-c2cccc3c2C[C@H](NC(=O)c2ccc(OCC(F)(F)F)nc2)CO3)cc1F` [Example 88, N-[(3S)-5-(5-fluoro-6-methoxypyridin-3-yl)-3,4-dihydro-2H-chromen-3-yl]-6-(2,2,2-trifluoroethoxy)nicotinamide], which IC50 is on record?
Its IC50 is 0.398 µM.

How did the IC50 turn out when `COc1ncc(-c2cccc3c2C[C@H](NC(=O)c2cnc(OCC(F)(F)F)nc2C)CO3)cn1` [Example 89, N-[(3S)-5-(2-methoxypyrimidin-5-yl)-3,4-dihydro-2H-chromen-3-yl]-4-methyl-2-(2,2,2-trifluoroethoxy)pyrimidine-5-carboxamide] was run?
The IC50 was 2 µM.

With `COc1ncc(-c2cccc3c2C[C@H](NC(=O)c2cnc(OCC(F)(F)F)nc2C)CC3)cn1` [Example 90, N-[(2R)-8-(2-methoxypyrimidin-5-yl)-1,2,3,4-tetrahydronaphthalen-2-yl]-4-methyl-2-(2,2,2-trifluoroethoxy)pyrimidine-5-carboxamide] as the compound, how does the IC50 read?
Its IC50 is 1.58 µM.

`O=C(N[C@@H]1COc2cccc(-c3ccc4nccn4c3)c2C1)c1ccc(OCC(F)(F)F)nc1` [Example 91, N-[(3S)-5-imidazo[1,2-a]pyridin-6-yl-3,4-dihydro-2H-chromen-3-yl]-6-(2,2,2-trifluoroethoxy)nicotinamide] was tested. Which IC50 did it give?
Its IC50 is 0.0794 µM.

`COc1ncc(-c2cccc3c2C[C@H](NC(=O)c2cnc(OC(C)C)nc2C)CO3)cn1` [Example 92, 2-isopropoxy-N-[(3S)-5-(2-methoxypyrimidin-5-yl)-3,4-dihydro-2H-chromen-3-yl]-4-methylpyrimidine-5-carboxamide] was tested. Which IC50 did it give?
The IC50 was 5.01 µM.

With `CCOc1ncc(-c2cccc3c2C[C@H](NC(=O)c2ccc(OCC(F)(F)F)nc2)CO3)cn1` [Example 93, N-[(3S)-5-(2-ethoxypyrimidin-5-yl)-3,4-dihydro-2H-chromen-3-yl]-6-(2,2,2-trifluoroethoxy)nicotinamide] as the compound, how does the IC50 read?
Its IC50 is 0.631 µM.

`COc1ncc(-c2cccc3c2C[C@H](NC(=O)c2ccc(OC4CCC4)nc2)CO3)cc1F` [Example 94, 6-(cyclobutyloxy)-N-[(3S)-5-(5-fluoro-6-methoxypyridin-3-yl)-3,4-dihydro-2H-chromen-3-yl]nicotinamide] was tested. Which IC50 did it give?
Its IC50 is 0.794 µM.

Which IC50 does the source give for `CCc1ncc(-c2cccc3c2C[C@H](NC(=O)c2ccc(OCC(F)(F)F)nc2)CO3)cn1` [Example 95, N-[(3S)-5-(2-ethylpyrimidin-5-yl)-3,4-dihydro-2H-chromen-3-yl]-6-(2,2,2-trifluoroethoxy)nicotinamide] here?
Its IC50 is 0.158 µM.

For `O=C(N[C@@H]1COc2cccc(-c3cnc(C4CC4)nc3)c2C1)c1ccc(OCCCF)nc1` [Example 96, N-[(3S)-5-(2-cyclopropylpyrimidin-5-yl)-3,4-dihydro-2H-chromen-3-yl]-6-(3-fluoropropoxy)nicotinamide], which IC50 is on record?
Its IC50 is 0.0501 µM.

Which IC50 does the source give for `COc1ncc(-c2cccc3c2C[C@H](NC(=O)c2ccc(OCCC(F)(F)F)nc2)CO3)cc1F` [Example 97, N-[(3S)-5-(5-fluoro-6-methoxypyridin-3-yl)-3,4-dihydro-2H-chromen-3-yl]-6-(3,3,3-trifluoropropoxy)nicotinamide] here?
Its IC50 is 0.398 µM.

With `COc1cc(-c2cccc3c2C[C@H](NC(=O)c2ccc(OCC(F)(F)F)nc2)CO3)c(OC)nn1` [Example 98, N-[(3S)-5-(3,6-dimethoxypyridazin-4-yl)-3,4-dihydro-2H-chromen-3-yl]-6-(2,2,2-trifluoroethoxy)nicotinamide] as the compound, how does the IC50 read?
The IC50 was 6.31 µM.

`Cc1cncc(-c2cccc3c2C[C@H](NC(=O)c2ccc(OCC(F)(F)F)nc2)CO3)n1` [Example 99, N-[(3S)-5-(6-methylpyrazin-2-yl)-3,4-dihydro-2H-chromen-3-yl]-6-(2,2,2-trifluoroethoxy)nicotinamide] was tested. Which IC50 did it give?
The IC50 was 0.398 µM.

`COc1ncc(-c2cccc3c2C[C@H](NC(=O)c2ccc(OCCCF)nc2)CO3)cn1` [Example 100, 6-(3-fluoropropoxy)-N-[(3S)-5-(2-methoxypyrimidin-5-yl)-3,4-dihydro-2H-chromen-3-yl]nicotinamide] was tested. Which IC50 did it give?
The IC50 was 0.398 µM.

For `Cc1ncc(-c2cccc3c2C[C@H](NC(=O)c2ccc(OCCCF)nc2)CO3)cn1` [Example 101, 6-(3-fluoropropoxy)-N-[(3S)-5-(2-methylpyrimidin-5-yl)-3,4-dihydro-2H-chromen-3-yl]nicotinamide], which IC50 is on record?
The IC50 was 0.158 µM.

For `Cc1ncc(-c2cccc3c2C[C@H](NC(=O)c2ccc(OCC(F)(F)F)nc2)CO3)cn1` [Example 102, N-[(3S)-5-(2-methylpyrimidin-5-yl)-3,4-dihydro-2H-chromen-3-yl]-6-(2,2,2-trifluoroethoxy)nicotinamide], which IC50 is on record?
Its IC50 is 0.1 µM.

How did the IC50 turn out when `Cc1ncc(-c2cccc3c2C[C@H](NC(=O)c2ccnc(OC(C)C)c2)CO3)cn1` [Example 104, 2-isopropoxy-N-[(3S)-5-(2-methylpyrimidin-5-yl)-3,4-dihydro-2H-chromen-3-yl]isonicotinamide] was run?
Its IC50 is 2.51 µM.
